# Assay results: ChEMBL document CHEMBL4330132, “5-Keto-3-cyano-2,4-diaminothiophenes as selective maternal embryonic leucine zipper kinase inhibitors” (Bioorg Med Chem Lett, 2019)
# Columns and labels:
# [1] = target: Vascular endothelial growth factor receptor 3 (Homo sapiens) (UniProt P35916); assay: Binding affinity to wild-type human partial length FLT4 (E821 to E1196 residues) expressed in bacterial expression system assessed as residual binding level at 1 uM by Kinomescan method relative to control
# [2] = target: Hormonally up-regulated neu tumor-associated kinase (Homo sapiens) (UniProt P57058); assay: Binding affinity to wild-type human partial length HUNK (A31 to K354 residues) expressed in bacterial expression system assessed as residual binding level at 1 uM by Kinomescan method relative to control
# [3] = target: Activin receptor type-1 (Homo sapiens) (UniProt Q04771); assay: Binding affinity to wild-type human ACVR1 (C188 to C509 residues) expressed in bacterial expression system assessed as residual binding level at 1 uM by Kinomescan method relative to control
# [4] = target: Ribosomal protein S6 kinase alpha-5 (Homo sapiens) (UniProt O75582); assay: Binding affinity to wild-type human partial length C-terminal RPS6KA5 kinase domain 2 (V390 to T718 residues) expressed in bacterial expression system assessed as residual binding level at 1 uM by Kinomescan method relative to control
# [5] = target: 5'-AMP-activated protein kinase catalytic subunit alpha-1 (Homo sapiens) (UniProt Q13131); assay: Binding affinity to wild-type human partial length AMPK alpha1 (M1 to E306 residues) expressed in bacterial expression system assessed as residual binding level at 1 uM by Kinomescan method relative to control
# [6] = target: Serine/threonine-protein kinase MRCK gamma (Homo sapiens) (UniProt Q6DT37); assay: Binding affinity to wild-type human partial length DMPK2 (S46 to S408 residues) expressed in bacterial expression system assessed as residual binding level at 1 uM by Kinomescan method relative to control
# [7] = target: Microtubule-associated serine/threonine-protein kinase 1 (Homo sapiens) (UniProt Q9Y2H9); assay: Binding affinity to wild-type human partial length MAST1 (S346 to V730 residues) expressed in mammalian expression system assessed as residual binding level at 1 uM by Kinomescan method relative to control
# [8] = target: Serine/threonine-protein kinase pim-1 (Homo sapiens) (UniProt P11309); assay: Binding affinity to wild-type human partial length PIM1 (A15 to K313 residues) expressed in bacterial expression system assessed as residual binding level at 1 uM by Kinomescan method relative to control
# [9] = target: Activated CDC42 kinase 1 (Homo sapiens) (UniProt Q07912); assay: Binding affinity to wild-type human partial length TNK2 (S159 to D474 residues) expressed in bacterial expression system assessed as residual binding level at 1 uM by Kinomescan method relative to control
# [10] = target: MAP/microtubule affinity-regulating kinase 3 (Homo sapiens) (UniProt P27448); assay: Binding affinity to wild-type human full length MARK3 (M1 to L729 residues) expressed in bacterial expression system assessed as residual binding level at 1 uM by Kinomescan method relative to control
# [11] = target: Serine/threonine-protein kinase D3 (Homo sapiens) (UniProt O94806); assay: Binding affinity to wild-type human partial length PRKD3 (S543 to E863 residues) expressed in bacterial expression system assessed as residual binding level at 1 uM by Kinomescan method relative to control
# [12] = target: Serine/threonine-protein kinase RIO2 (Homo sapiens) (UniProt Q9BVS4); assay: Binding affinity to wild-type human partial length RIOK2 (M1 to D313 residues) expressed in mammalian expression system assessed as residual binding level at 1 uM by Kinomescan method relative to control
# [13] = target: Ephrin type-B receptor 4 (Homo sapiens) (UniProt P54760); assay: Binding affinity to wild-type human partial length EPHB4 (H585 to G892 residues) expressed in bacterial expression system assessed as residual binding level at 1 uM by Kinomescan method relative to control
# [14] = target: Transient receptor potential cation channel subfamily M member 6 (Homo sapiens) (UniProt Q9BX84); assay: Binding affinity to wild-type human partial length TRPM6 (Q1723 to I1998 residues) expressed in mammalian expression system assessed as residual binding level at 1 uM by Kinomescan method relative to control
# [15] = target: Tyrosine-protein kinase SYK (Homo sapiens) (UniProt P43405); assay: Binding affinity to wild-type human partial length SYK (D354 to N635 residues) expressed in bacterial expression system assessed as residual binding level at 1 uM by Kinomescan method relative to control
# [16] = target: Activin receptor type-2A (Homo sapiens) (UniProt P27037); assay: Binding affinity to wild-type human ACVR2A (V171 to T499 residues) expressed in bacterial expression system assessed as residual binding level at 1 uM by Kinomescan method relative to control
# [17] = tested on: Proto-oncogene tyrosine-protein kinase receptor Ret (Homo sapiens), P07949 [M918T]; assay: Binding affinity to human partial length RET M918T mutant (E713 to D1014 residues) expressed in bacterial expression system assessed as residual binding level at 1 uM by Kinomescan method relative to control
# [18] = target: Serine/threonine-protein kinase LATS2 (Homo sapiens) (UniProt Q9NRM7); assay: Binding affinity to wild-type human partial length LATS2 (Q641 to V1088 residues) expressed in mammalian expression system assessed as residual binding level at 1 uM by Kinomescan method relative to control
# [19] = target: Rhodopsin kinase GRK1 (Homo sapiens) (UniProt Q15835); assay: Binding affinity to wild-type human full length GRK1 (M1 to S563 residues) expressed in mammalian expression system assessed as residual binding level at 1 uM by Kinomescan method relative to control
# [20] = target: Serine/threonine-protein kinase Nek4 (Homo sapiens) (UniProt P51957); assay: Binding affinity to wild-type human full length NEK4 (M1 to F841 residues) expressed in mammalian expression system assessed as residual binding level at 1 uM by Kinomescan method relative to control
# [21] = tested on: Epidermal growth factor receptor (Homo sapiens), P00533 [L858R,T790M]; assay: Binding affinity to human partial length EGFR L858R/T790M double mutant (R669 to V1011 residues) expressed in mammalian expression system assessed as residual binding level at 1 uM by Kinomescan method relative to control
# [22] = tested on: Receptor-type tyrosine-protein kinase FLT3 (Homo sapiens), P36888 [D835Y]; assay: Binding affinity to human partial length FLT3 D835Y mutant (Q580 to Y969 residues) expressed in bacterial expression system assessed as residual binding level at 1 uM by Kinomescan method relative to control
# [23] = target: Serine/threonine-protein kinase ULK1 (Homo sapiens) (UniProt O75385); assay: Binding affinity to wild-type human partial length ULK1 (M1 to T309 residues) expressed in mammalian expression system assessed as residual binding level at 1 uM by Kinomescan method relative to control
# [24] = target: Death-associated protein kinase 1 (Homo sapiens) (UniProt P53355); assay: Binding affinity to wild-type human partial length DAPK1 (M1 to F296 residues) expressed in bacterial expression system assessed as residual binding level at 1 uM by Kinomescan method relative to control
smiles,measurement,setting,value
CC(C)Nc1sc(C(=O)c2ccc(Cl)s2)c(N)c1C#N,Activity,[1],50%
same,Activity,[2],71%
same,Activity,[3],47%
same,Activity,[4],77%
same,Activity,[5],70%
same,Activity,[6],100%
same,Activity,[7],100%
same,Activity,[8],92%
same,Activity,[9],60%
same,Activity,[10],78%
same,Activity,[11],62%
same,Activity,[12],100%
same,Activity,[13],93%
same,Activity,[14],92%
same,Activity,[15],91%
same,Activity,[16],62%
same,Activity,[17],86%
same,Activity,[18],100%
same,Activity,[19],100%
same,Activity,[20],80%
same,Activity,[21],83%
same,Activity,[22],59%
same,Activity,[23],92%
same,Activity,[24],100%
